Laboratory results reported in PMC8438977, “Isolation of bioactive compounds from medicinal plants used in traditional medicine: Rautandiol B, a potential lead compound against Plasmodium falciparum” (BMC Complementary Medicine and Therapies, 2021).
In brackets after ≈: the same amount, converted by molar mass. Read-outs that look alike come from different tables or passages of the source.

Tests used:
[1] = system: T. brucei rhodesiense (STIB-900); test: Anti-trypanosomal assay (Alamar Blue, 72 h); assay type: cell-based, Trypanosoma brucei rhodesiense
Protocol: T. brucei rhodesiense (STIB-900) was maintained in Minimal Essential Medium (MEM) with Earle’s salts supplemented with 3 g/L sodium bicarbonate, 4.5 g/L glucose, 25 mM HEPES, pH 7.3, 0.05 mM bathocuproinedisulfonic acid disodium salt, 1.5 mM L-cysteine, 1 mM hypoxanthine, 0.16 mM thymidine, 1 mM sodium pyruvate, 0.2 mM 2-mercaptoethanol, 1% MEM non-essential amino acid, and 15% heated fetal bovine serum, at 37 °C in a 5% CO2 incubator. To assay anti-Tbr activity, a modified reported protocol was used. Briefly, 2 × 10^4 T. brucei rhodesiense parasites in 175 μL culture media were incubated with 25 μL of varying concentrations of each compound in a 96-well plate under the same culture conditions. Following 72 h incubation, 20 μL Alamar Blue (a resazurin solution) was added in each well. The mixture was further incubated for 3 h. The fluorescence signals were measured by a spectrofluorometer at ex530/em585 nm.

[2] = system: Mycobacterium tuberculosis H37Rv (ATCC 27294); test: Mycobacterium tuberculosis assay (Microplate Alamar Blue Assay, MIC); assay type: cell-based; details: pure compounds and controls, read-out: MTB H37Rv (MIC μM)
[3] = system: Plasmodium falciparum K1CB1; test: Antimalaria assay, [3H] hypoxanthine incorporation, K1CB1 strain; assay type: cell-based; details: for IC50: Plasmodium falciparum, read-out: P. f (IC50 μM) K1CB1
Protocol: (§1) Plasmodium falciparum TM4/8.2 and K1CB1 strains were maintained in RPMI 1640 medium supplemented with 8% human serum, 2.5 mM HEPES and 2 g/L sodium bicarbonate. Parasite cultures were incubated at 37 °C in a 3% CO2 incubator. The crude extracts/pure compounds were tested against TM4/8.2 and K1CB1 P. falciparum in vitro by the modified [^3H] hypoxanthine incorporation assay. Briefly, stock solutions of the crude extracts or pure compounds were prepared in DMSO. Various concentrations of the samples were incubated with malaria parasites with a final volume of 225 μL, 1% parasitemia, 1.5% hematocrit, 0.1% dimethylsulfoxide (DMSO) in 96-well plates. Plates were incubated for 16–18 h. Then, 25 μL [^3H]-hypoxanthine solution was added and incubated for 20 h. The parasites were harvested onto a UniFilter-96 GF/B plate (PerkinElmer, USA). The filters in the plates were air-dried, and then 25 μL of liquid scintillation fluid (Microscint, Packard) was added. The radioactivity was then measured using a microplate scintillation counter (TopCount, Packard). The IC50 values of the crude extracts/ pure compounds were determined.

[4] = system: Plasmodium falciparum TM4/8.2; test: Antimalaria assay, [3H] hypoxanthine incorporation, TM4/8.2 strain; assay type: cell-based
Protocol: as §1

α-glucosidase (AG) = biological target: T1, α-glucosidase (AG) (Saccharomyces cerevisiae, UniProt P53341); test: biochemical; set-up: species or system S. cerevisiae; details: for IC50: in 50% DMSO; for inhibition at 250 µg/mL: samples 250 μg/mL in 50% DMSO, read-out: % Inhibition (AGI activity)
T1 construct: purchased Sigma
Protocol: AGI values of extracts and pure phytochemicals were quantitatively determined in a 96-well plastic plate according to the method described by Nguyen et al.. The enzyme was incubated with the samples dissolved in DMSO for 5 min before adding the substrate. The inhibition was measured spectrophotometrically in 20 mM sodium phosphate buffer pH 6.0 at 37 °C using 3.0 mM p-nitrophenyl α-D-glucopyranoside (Sigma) as the substrate and 0.25 units/mL of AG from S. cerevisiae (Sigma). The absorbance at 405 nm was measured using a microplate reader (BioTek ELx808 microplate reader, USA).

[5] = earlier reports; cited from earlier work
BHK21 cells = system: BHK21 cells; set-up: method as in PMID 32798746; details: cited from earlier work
VERO cells = system: VERO cells; set-up: method as in PMID 32798746; details: cited from earlier work
[6] = pure compounds and control; 72 h; read-out: T. br (IC50 μM)
[7] = pure compounds and controls, strain K1CB1
[8] = Trypanosoma brucei, RHODESIENSE, 72 h, pure compounds and control; 72 h; read-out: T. br (IC50 μM)
[9] = pure compounds and controls, strain TM4/8.2, read-out: P. f (IC50 μM) TM4/8.2
[10] = read-out: P. f (IC50 μM) TM4/8.2
[11] = Trypanosoma brucei, RHODESIENSE; pure compounds and control; 72 h; read-out: T. br (IC50 μM)

T1 sequence (P53341 whole entry): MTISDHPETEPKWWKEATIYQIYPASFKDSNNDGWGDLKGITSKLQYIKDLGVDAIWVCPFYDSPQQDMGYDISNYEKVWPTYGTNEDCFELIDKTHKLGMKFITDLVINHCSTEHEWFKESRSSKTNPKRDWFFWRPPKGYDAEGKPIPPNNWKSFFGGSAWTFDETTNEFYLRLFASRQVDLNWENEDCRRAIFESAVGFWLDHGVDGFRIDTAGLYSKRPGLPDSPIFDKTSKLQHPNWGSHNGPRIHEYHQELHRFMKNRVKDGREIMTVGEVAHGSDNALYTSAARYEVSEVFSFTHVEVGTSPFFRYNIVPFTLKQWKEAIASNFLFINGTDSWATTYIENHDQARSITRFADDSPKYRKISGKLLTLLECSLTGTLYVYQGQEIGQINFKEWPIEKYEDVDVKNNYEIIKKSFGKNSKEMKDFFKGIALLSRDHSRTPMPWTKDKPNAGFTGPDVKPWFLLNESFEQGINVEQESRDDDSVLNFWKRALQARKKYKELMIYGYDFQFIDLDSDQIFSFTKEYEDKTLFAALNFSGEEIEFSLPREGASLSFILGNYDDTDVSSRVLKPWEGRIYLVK

CC(C)=CCc1cc2c(cc1O)OC[C@H]1c3cc4c(cc3O[C@@H]21)OCO4
SR (safety ratio), T. brucei rhodesiense [1]: > 5.83 | IC50 [1, 6]: 4.87 ± 0.49 µM

O=c1c(O)c(-c2ccc(O)cc2)oc2cc(O)cc(O)c12 [Compound 1, kempherol]
MIC [2]: > 20 µM | IC50 [3, 7]: > 50 µM | IC50 [1, 8]: 10.3 ± 0.38 µM | IC50 [1, 6]: 8.74 ± 0.49 µM | SR (safety ratio), T. brucei rhodesiense ([1]; safety ratio): 3.3 | IC50 [4, 9]: > 50 µM

O=c1c(O)c(-c2ccc(O)c(O)c2)oc2cc(O)cc(O)c12 [Compound 2, quercetin]
MIC [2]: > 20 µM | IC50 [3, 7]: > 50 µM | IC50 [1, 8]: 8.44 ± 0.16 µM | IC50 [1, 6]: 8.91 ± 0.03 µM | SR (safety ratio), T. brucei rhodesiense ([1]; safety ratio): 4.52 | IC50 [4, 9]: > 50 µM

OC[C@H]1O[C@@H](OCCc2ccc(O)cc2)[C@H](O)[C@@H](O)[C@@H]1O [Compound 4, salidroside]
IC50 (α-glucosidase (AG)): 1380 µM | inhibition at 250 µg/mL (α-glucosidase (AG)): 47.7 ± 1.8% | MIC [2]: > 20 µM | IC50 [3, 7]: > 100 µM | IC50 [1, 8]: > 100 µM | IC50 [4, 9]: > 100 µM

c1cc2cc3c(cc2o1)OCc1c-3oc2cc3c(cc12)OCO3 [Compound 5, neoduleen]
MIC [2]: > 62.1 µM | IC50 [3, 7]: > 31 µM | IC50 [4, 9]: > 31 µM

c1cc2cc3c(cc2o1)OC[C@H]1c2cc4c(cc2O[C@@H]31)OCO4 [Compound 6, neodulin]
MIC [2]: > 64.9 µM | IC50 [3, 7]: > 32.5 µM | IC50 [4, 9]: > 32.5 µM

COc1cc2c(cc1-c1cc3cc4ccoc4cc3oc1=O)OCO2 [Compound 10, pachyrrhizine]
MIC [2]: > 64.7 µM | IC50 [3]: > 32.3 µM | IC50 [4, 10]: > 32.3 µM

COc1cc2c(cc1C1COc3cc4occc4cc3C1=O)OCO2 (centres unmarked) [Compound 11, neotenone]
MIC [2]: > 62 µM | melting point: 174 to 175 °C | IC50 [3, 7]: > 31 µM | IC50 [1, 8]: 17 ± 1.83 µM | IC50 [4, 9]: > 31 µM

COc1ccc2c(c1)OCC(c1cc3c(cc1OC)OCO3)C2=O (centres unmarked) [Compound 12, 7-methoxy-3-(6-methoxybenzo [d] [1,3]dioxol-5-yl) chroman-4-one]
inhibition at 250 µg/mL (α-glucosidase (AG)): 17.7 ± 0.3% | melting point: 133 to 135 °C

O=C1c2cc3ccoc3cc2O[C@]2(O)COc3cc4c(cc3[C@H]12)OCO4 [Compound 13, 12a-hydroxydolineon]
melting point: 155 to 156 °C

O=C1c2cc3ccoc3cc2O[C@@H]2COc3cc4c(cc3[C@H]12)OCO4 [Compound 14, dolineon]
IC50 (α-glucosidase (AG)): 660 µM | inhibition at 250 µg/mL (α-glucosidase (AG)): 54.2 ± 8.9% | MIC [2]: > 59.9 µM | IC50 [3]: > 29.6 µM | IC50 [1, 11]: 18.7 ± 3.2 µM | IC50 [4, 10]: > 29.6 µM

CC(C)=CCc1cc2c(cc1O)OC[C@@H]1c3cc4c(cc3O[C@H]21)OCO4 [Compound 15, (−)-2-isopentenyl-3-hydroxy-8-9-methylenedioxypterocarpan]
inhibition at 250 µg/mL (α-glucosidase (AG)): 31.5 ± 2.1% | MIC [2]: > 56.8 µM | IC50 [3, 7]: > 28.4 µM | IC50 [1, 8]: 4.87 ± 0.49 µM | SR (safety ratio), T. brucei rhodesiense ([1]; safety ratio): > 5.83 | IC50 [4, 9]: > 28.4 µM

COc1ccc(C2COc3cc4occc4cc3C2=O)c(OC)c1OC (centres unmarked) [Compound 16, nepseudin]
MIC [2]: > 56.4 µM | IC50 [3, 7]: > 28.2 µM | IC50 [4, 9]: > 28.2 µM

COc1cc2c(cc1O)[C@H]1Oc3cc4c(cc3[C@H]1CO2)OCO4 [Compound 19, (−)-2-hydroxypterocarpin]
MIC [2]: > 56.8 µM | melting point: 223 to 225 °C | IC50 [3, 7]: > 28.4 µM | IC50 [4, 9]: > 28.4 µM

C=C(C)[C@H]1Cc2c(ccc3c2O[C@@H]2COc4cc(OC)c(OC)cc4[C@@H]2C3=O)O1 [Compound 20, rotenone]
MIC [2]: > 52.3 µM | cytotoxicity [5]: cytotoxic | IC50 [3]: > 26.2 µM | IC50 ([1]; Trypanosoma brucei, RHODESIENSE, 72 h, read-out: T. br (IC50 μM)): 7.51 ± 0.17 µM | IC50 [4, 10]: > 26.2 µM

C=C(C)C1Cc2c(ccc3c2O[C@@H]2COc4cc(OC)c(OC)cc4[C@]2(O)C3=O)O1 (some centres unmarked) [Compound 21, 12a-hydroxyrotenone]
inhibition at 250 µg/mL (α-glucosidase (AG)): 19.9 ± 11.4% | MIC [2]: > 55.2 µM | cytotoxicity [5]: cytotoxic | IC50 [3]: > 27.6 µM | IC50 [1, 11]: 8.63 ± 1.14 µM | IC50 [4, 10]: > 27.6 µM

COc1cc2c(cc1-c1coc3cc4occc4cc3c1=O)OCO2 [Compound 22, dehydroneotenone]
MIC [2]: > 61.7 µM | IC50 [3, 7]: > 30.9 µM | IC50 [4, 9]: > 30.9 µM

CC1(C)Oc2cc3c(cc2CC1O)[C@@H]1Oc2cc(O)ccc2[C@@H]1CO3 (some centres unmarked) [Compound 23, rautandiol A]
IC50 (α-glucosidase (AG)): 280 µM | inhibition at 250 µg/mL (α-glucosidase (AG)): 83.9 ± 1% | melting point: 194 to 196 °C

CC(C)(O)C1Cc2cc3c(cc2O1)OC[C@H]1c2ccc(O)cc2O[C@@H]31 (some centres unmarked) [Compound 24, rautandiol B]
inhibition at 250 µg/mL (α-glucosidase (AG)): 29.3 ± 3.1% | MIC [2]: > 20 µM | melting point: 209 to 213 °C | IC50 [3, 7]: 0.74 ± 0.29 µM | SR (safety ratio), P. falciparum K1CB1 ([3]; safety ratio): 133 | IC50 [1, 8]: 23.5 ± 1.59 µM | cytotoxicity on BHK21 cells (BHK21 cells): non-cytotoxic | cytotoxicity on VERO cells (VERO cells): non-cytotoxic | IC50 [4, 9]: 0.4 ± 0.07 µM

CC1(C)N=C(N)N=C(N)N1c1ccc(Cl)cc1 [Cycloguanil, reference compound]
IC50 [3, 7]: 10.7 ± 1.62 µM | IC50 [4, 9]: 0.076 ± 0.016 µM

NNC(=O)c1ccncc1 [Isoniazid, reference compound]
MIC [2]: 0.02 µM (≈ 0.00274 µg/mL)

N=C(N)c1ccc(OCCCCCOc2ccc(C(=N)N)cc2)cc1 [Pentamidine, reference compound]
IC50 [1, 8]: 0.007 ± 4e-05 µM

CCc1nc(N)nc(N)c1-c1ccc(Cl)cc1 [Pyrimethamine, reference compound]
IC50 [3, 7]: 23.2 ± 2.24 µM | IC50 [4, 9]: 0.095 ± 0.02 µM

CO[C@H]1/C=C/O[C@@]2(C)Oc3c(C)c(O)c4c(O)c(c(/C=N/N5CCN(C)CC5)c(O)c4c3C2=O)NC(=O)/C(C)=C\C=C\[C@H](C)[C@H](O)[C@@H](C)[C@@H](O)[C@@H](C)[C@H](OC(C)=O)[C@@H]1C [Rifampin, reference compound]
MIC [2]: 0.08 µM (≈ 0.0658 µg/mL)
